In PMC4811503, “A method for quantification of exportin-1 (XPO1) occupancy by Selective Inhibitor of Nuclear Export (SINE) compounds” (Oncotarget, 2015):
Where two headings read alike, the source gives them in different places.

Tests used:
[1] = MTT assay of unmodified and biotinylated SINE compounds (cell line not given); type: cell-based; settings: for IC50: cell line not named; for fold less cytotoxic compared to unmodified counterpart: ratio of MTT IC50 values
[2] = biological target: XPO1 (Homo sapiens, UniProt O14980); test: XPO1 occupancy assay in cultured cell lines (biotinylated probe pull-down, Simple Western); type: cell-based; set-up: Cells were collected, washed with PBS, and lysed with RIPA Buffer; endogenous in cells; host or cells: MM.1S; settings: MM.1S cells
Sequence of XPO1 (O14980 whole entry): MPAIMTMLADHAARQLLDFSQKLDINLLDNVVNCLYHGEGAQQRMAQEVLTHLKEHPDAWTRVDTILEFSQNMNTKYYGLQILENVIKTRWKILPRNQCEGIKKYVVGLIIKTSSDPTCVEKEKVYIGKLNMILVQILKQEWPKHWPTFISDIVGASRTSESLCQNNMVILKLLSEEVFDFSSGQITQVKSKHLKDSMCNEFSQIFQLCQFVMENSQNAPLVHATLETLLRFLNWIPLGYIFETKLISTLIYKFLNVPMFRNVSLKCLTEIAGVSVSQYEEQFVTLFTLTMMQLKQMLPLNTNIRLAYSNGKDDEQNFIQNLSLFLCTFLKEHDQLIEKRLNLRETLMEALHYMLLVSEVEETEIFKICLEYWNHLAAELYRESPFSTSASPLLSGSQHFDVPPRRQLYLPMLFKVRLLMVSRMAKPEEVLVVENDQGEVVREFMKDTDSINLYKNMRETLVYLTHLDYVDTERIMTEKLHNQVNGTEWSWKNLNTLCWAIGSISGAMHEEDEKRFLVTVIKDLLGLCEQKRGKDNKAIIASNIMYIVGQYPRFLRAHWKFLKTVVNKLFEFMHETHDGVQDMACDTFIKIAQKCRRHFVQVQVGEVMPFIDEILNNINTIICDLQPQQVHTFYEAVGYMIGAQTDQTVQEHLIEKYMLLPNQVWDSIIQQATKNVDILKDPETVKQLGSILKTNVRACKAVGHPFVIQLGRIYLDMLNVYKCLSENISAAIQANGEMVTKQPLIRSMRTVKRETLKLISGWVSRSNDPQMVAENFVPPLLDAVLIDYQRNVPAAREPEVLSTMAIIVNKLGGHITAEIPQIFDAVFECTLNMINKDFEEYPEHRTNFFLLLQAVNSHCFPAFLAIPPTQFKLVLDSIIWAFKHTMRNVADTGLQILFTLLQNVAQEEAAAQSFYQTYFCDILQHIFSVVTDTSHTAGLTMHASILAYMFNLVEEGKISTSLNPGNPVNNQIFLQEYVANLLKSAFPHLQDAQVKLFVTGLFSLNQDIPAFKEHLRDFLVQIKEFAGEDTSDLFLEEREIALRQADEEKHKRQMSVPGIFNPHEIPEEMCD
Protocol: b-LMB was tested for the ability to bind XPO1 protein. First, a dose-response curve was generated by exposing MM.1S cells to increasing concentrations of b-LMB (0 – 500 nM) for 1.5 hours in culture. The cells were then collected, lysed, and a portion of the lysate (input) was reserved prior to incubating the remaining lysate with streptavidin-tagged beads overnight. After extensive washes, b-LMB bound XPO1 was eluted from the beads, and XPO1 from both input and bead eluate was detected and quantified by Simple Western on Peggy Sue. Simple Western allows for the chemiluminescent detection of proteins from small volumes of samples that are run through a matrix-filled capillary. The signal is detected by a CCD camera which generates a digital image and then reports quantitative results. […] The protein signals for XPO1 detected by Simple Western in Figure 2A were reported as mean peak areas and were used to compare levels of XPO1 present in each sample to produce a graphical representation of the ratio of free XPO1 detected at each concentration of b-LMB (Figure 2B). “Ratio of bound XPO1” is defined as the ratio of the mean peak area of b-LMB bound XPO1 detected in the eluate compared to the mean peak area of all XPO1 detected in the input lysate, while “free-fraction” refers to the amount of XPO1 not occupied by SINE compound, as described later.
The cells were then collected and processed for the XPO1 occupancy assay. […] For these assays, the “ratio of free-fraction XPO1” is calculated by dividing the mean peak areas of XPO1 occupied by b-LMB (from the eluate) by the total amount of XPO1 (from the input).
Cells were collected, washed with PBS, and lysed with RIPA Buffer (Thermo Scientific) with protease inhibitors [Complete Ultra Tablets, Mini, EDTA-free, Easy pack (Roche), PhosStop Easy (Roche)]. A portion of the lysate was reserved (input) while the rest was added to washed Dynabeads MyOne Streptavidin T1 (Invitrogen) with RIPA Buffer. Samples were incubated overnight with constant rotation at 4°C. Beads were then washed 5 times with modified RIPA (150 mM NaCl, 50 mM Tris, 1% NP-40, 0.1% Na deoxycholate, 1 mM EDTA, pH 7.8). The reserved portion of lysates (input) and the beads were each mixed with Protein Simple buffer (Protein Simple), DTT (Invitrogen), and fluorescent standards (Protein Simple), then boiled at 95°C for 10 min. Eluates and inputs were analyzed using a capillary western method (Peggy Sue; Protein Simple) with the following primary antibodies: XPO1 (Santa Cruz) and β-actin (Santa Cruz). Capillary westerns were performed by SBH Sciences (Natick, MA). Peak areas corresponding to the protein molecular weight of XPO1 and actin were compared for sample inputs, while the ratio of XPO1 peak areas in eluate to input (ratio of bound or free-fraction XPO1) versus compound concentration were used in XLFit model 205 to calculate 50% and 90% occupancy curves.

[3] = tested on: nuclear export of the XPO1 cargo protein Rev-GFP in stably transfected U2OS cells; test: Rev-GFP assay (nuclear retention of Rev-GFP); type: cell-based; settings: Homo sapiens
From the text: (§1) For this assay we utilized biotinylated LMB (b-LMB) as a tool compound to quantify the amount of XPO1 bound by SINE compounds (Figure 1). b-LMB was synthesized by coupling a biotin tag to LMB. We compared the inhibition of nuclear export and the cytotoxicity of b-LMB to that of the unmodified LMB. […] We then quantified the effects of these compounds on cell death in several cancer cell lines using an MTT cytotoxicity assay (Table 2).
For the typical Rev-GFP assay, U2OS cells stably expressing Rev-GFP [42] were cultured in 96 well plates at 7,500 - 15,000 cells/well. […] After fixation cells were stained with DAPI (Invitrogen) for 10 minutes at room temperature. Cells were imaged with a Nikon fluorescent microscope at 10X magnification and intensity of the GFP and nuclear area were measured and recorded. Cells were scored as either GFP nuclear positive or negative. Number of positive cells were divided by total number of cells in order to calculate percentage of cells with nuclear GFP per well.

[4] = tested on: AML3; test: MTT cytotoxicity assay; type: cell-based; settings: 72 hours, read-out: IC50
[5] = tested on: several cancer cell lines; settings: human, 72 h
Protocol: as §1
Cells were seeded in 96-well flat-bottom culture plates. […] Triplicate wells per concentration were used to calculate IC50 curves. The CellTiter-Fluor Cell Viability Assay (Promega) was performed as instructed by the manufacturer. The whole procedure was repeated three times. The inhibitory rate of cell growth was calculated using the formula: % growth inhibition = (1− OD extract treated)/OD negative control × 100).

[6] = tested on: MM.1S; test: MTT cytotoxicity assay; type: cell-based; settings: Homo sapiens, MM1.S, 72 hours, read-out: IC50
[7] = tested on: HCT-116; test: MTT cytotoxicity assay; type: cell-based; settings: Homo sapiens, 72 hours, read-out: IC50
[8] = tested on: AML2; test: MTT cytotoxicity assay; type: cell-based; settings: 72 hours, read-out: IC50
[9] = biotinylated SINE compound alone, direct binding
[10] = biotinylated SINE compound alone, direct binding, read-out: 50% Occupancy
[11] = read-out: Rev GFP IC50 (nM), U2OS Rev-GFP cells, unmodified and biotinylated SINE compounds
[12] = SINE compound 1 hour, then 1 nM b-LMB […]
[13] = read-out: Rev-GFP IC50 (μM), U2OS Rev-GFP cells
[14] = SINE compound 1 hour, then 1 nM b-LMB […], read-out: Avg 50% Occupancy
[15] = 4 h, read-out: Rev-GFP (nM), U2OS cells stably expressing Rev-GFP, 4 hours treatment

With O=C1N[C@H]2[C@H](CS[C@H]2CCCCC(=O)Oc2cc(-c3ncn(/C=C\C(=O)N4CC(F)(F)C4)n3)cc(C(F)(F)F)c2)N1 [KPT-9058] the IC50 [1] was 0.11 µM, the “fold less cytotoxic compared to unmodified counterpart” value [1] was roughly 6 fold and the “90% Occupancy” value [2, 9] was 0.69 µM. It also gave an EC50 [2, 10] of 0.12 µM and an IC50 [3, 11] of 961 nM.
For NC(=O)/C(=C/n1cnc(-c2cc(C(F)(F)F)cc(C(F)(F)F)c2)n1)c1cncnc1 [KPT-8602], the IC50 [1] was 0.019 µM, the “Avg 90% Occupancy (μM)” value [2, 12] was 1.1 +/− 1.03 (n = 2) μM and the “90% Occupancy” value ([2]; followed by 0.1 μM KPT-9511 as probe) was 0.11 µM. For the same compound, the IC50 [3, 11] was 42 nM and the IC50 [3, 13] was 40 nM.
In the case of NC(=O)/C(=C/n1cnc(-c2cc(OC(=O)CCCC[C@@H]3SC[C@@H]4NC(=O)N[C@@H]43)cc(C(F)(F)F)c2)n1)c1cncnc1 [KPT-9511], the IC50 [1] is reported as 0.28 µM, the “fold less cytotoxic compared to unmodified counterpart” value [1] is reported as roughly 15 fold and the “90% Occupancy” value [2, 9] is reported as 0.61 µM. The EC50 [2, 10] was 0.18 µM and the IC50 [3, 11] was 230 nM.
In the case of CC(C)(C)C(=O)NNC(=O)/C=C\n1cnc(-c2cc(C(F)(F)F)cc(C(F)(F)F)c2)n1 [KPT-350], the “Avg 90% Occupancy (μM)” value [2, 12] is reported as 6.45 +/− 3.36 (n = 3) μM, the EC50 [2, 14] is reported as 0.63 µM and the IC50 [3, 13] is reported as 170 nM.
For CCC(C=CC1OC(=O)C=CC1C)=CC(C)CC=CC(C)=CC(C)C(=O)C(C)C(O)C(C)CC(C)=CC(=O)NCCCCCCNC(=O)CCCCC1SCC2NC(=O)NC21 (stereo not shown) [b-LMB, reference compound], the IC50 [4] was 0.00468 µM, the “fold less cytotoxic than unmodified LMB” value [5] was 6 – 30 fold and the IC50 [6] was 0.0031 µM. The IC50 [7] was 0.006 µM, the “amount of b-LMB necessary to occupy 90% of XPO1” value ([2]; b-LMB […], direct binding, n = 3) was 2.53 ± 1.72 nM and the EC50 ([2]; b-LMB […], direct binding, n = 3, read-out: amount of b-LMB necessary to occupy 50% of XPO1) was 0.00027 µM. The IC50 [8] was 0.00253 µM and the IC50 [3, 15] was 0.11 nM.
Compound O=C(/C=C\n1cnc(-c2cc(C(F)(F)F)cc(C(F)(F)F)c2)n1)N1CC(F)(F)C1 [KPT-276] has an IC50 [1] of 0.018 µM and an IC50 [3, 11] of 53 nM.
With O=C(/C=C\n1cnc(-c2cc(C(F)(F)F)cc(C(F)(F)F)c2)n1)NNc1ccccn1 [Verdinexor, verdinexor] the “Avg 90% Occupancy (μM)” value [2, 12] was 0.34 +/− 0.08 (n = 3) μM, the EC50 [2, 14] was 0.04 µM and the IC50 [3, 13] was 10 nM.
In the case of COc1cc(-c2ncn(/C=C/C(=O)OC(C)C)n2)cc(C(F)(F)F)c1 [KPT-301], the “XPO1 binding in the occupancy assay (negative control)” value ([2]; 0 – 10 μM, then 1 nM b-LMB, data not shown) is reported as “no XPO1 bound”.
In the case of CCC(=C/[C@H](C)C/C=C/C(C)=C/[C@@H](C)C(=O)[C@@H](C)[C@H](O)[C@@H](C)C/C(C)=C/C(=O)O)/C=C/[C@@H]1OC(=O)C=C[C@@H]1C [LMB, leptomycin B, reference compound], the IC50 [4] is reported as 0.00068 µM, the IC50 [6] is reported as 0.00046 µM and the IC50 [7] is reported as 0.00019 µM. For the same compound, the IC50 [8] was 0.00039 µM and the IC50 [3, 15] was 0.16 nM.
